Measured values from US20020091086A1, “Peptides that block viral infectivity and methods of use thereof” (priority 1999, published 2002).
Like-named read-outs stand apart in the source and are kept apart here. Peptide text beside a SMILES is read from it.

What was measured:
[1] = tested on: SIV; assay: SIV infectivity assay in H9 cells, RT activity in supernatant; format: cell-based; conditions: for SIV infection, result in words: summary of Experiments 1-3
[2] = tested on: HIV-2; assay: HIV-2 infectivity assay in H9 cells, RT activity in supernatant; format: cell-based; conditions: for HIV-2 infection, result in words: summary of Experiments 1-3
[3] = tested on: HIV-1; conditions: H9 cells; for Day 10 RT HIV-1 (1:5): supernatant diluted 5-fold; for HIV-1 infection, result in words: summary of Experiments 1-5
Description: In this example, the methods that were used to analyze the ability of various tripeptides to inhibit HIV-1, HIV-2, and SIV replication are disclosed. In Experiments 1 and 2, approximately 200,000 H9 cells were infected with HIV-1, HIV-2 or SIV at 25 TCID50 to test the inhibitory effect of the following synthesized tripeptides LKA-NH2, ILK-NH2, GPQ-NH2, GHK-NH2, GKG-NH2, ACQ-NH2, CQG-NH2, ARV-NH2, KAR-NH2, HKA-NH2, GAT-NH2, KAL-NH2, and GPG-NH2. Accordingly, the H9 cells were resuspended with or without the different peptides (approximately 100 μM) in 1 ml of RPMI 1640 medium supplemented with 10% (v/v) heat-inactivated fetal bovine serum (FBS), penicillin (100 u/ml), and streptomycin (100 u/ml), all available through GIBCO, and Polybrene (2 μg/ml), available through Sigma. Thereafter, viruses were added at 25 TCID50 in a volume of 20-30μl. Cells were incubated with virus at 37° C. for 1 hr then pelleted at 170×g for 7 minutes. The cells were then washed three times in RPMI medium without peptides at room temperature and pelleted at 170×g for 7 minutes, as above. After the final wash, the cells were resuspended in RPMI culture medium containing the peptides in a 24-well plate (Costar corporation) and were kept at 37° C. in 5% CO2 with humidity.
Culture supernatants were collected and analyzed when the medium was changed at 4, 7, 10, and 14 days post infection. To monitor the replication of virus, reverse transcriptase (RT) activity in the supernatants was assayed using a commercially available Lenti-RT activity kit. (Cavidi Tech, Uppsala, Sweden). The amount of RT was determined with the aid of a regression line of standards. The results are presented as absorbance values (OD) and higher absorbance indicates a higher protein concentration and greater viral infection. Syncytium formation was also monitored by microscopic examination.
In Experiment 3, (Table 4), approximately 200,000 H9 cells were infected with HIV-1, HIV-2 or SIV at 25 TCID50 to test the inhibitory effect of different concentrations of peptides GPG-NH2, GKG-NH2 and CQG-NH2 and combinations of these peptides (the indicated concentration corresponds to the concentration of each tripeptide). As above, H9 cells were resuspended with or without the different peptides at varying concentrations in 1 ml of RPMI 1640 medium supplemented with 10% (v/v) heat-inactivated fetal bovine serum (FBS), penicillin (100 u/ml), and streptomycin (100 u/ml), and Polybrene (2 μg/ml). Thereafter, viruses were added at 25 TCID50 in a volume of 20-30 μl. Cells were incubated with the indicated virus at 37° C. for 1 hr then pelleted at 170×g for 7 minutes. The cells were then washed three times in RPMI medium without peptides at room temperature and pelleted at 170×g for 7 minutes, as above. After the final wash, the cells were resuspended in RPMI culture medium containing the peptides in a 24-well plate (Costar corporation) and kept at 37° C. in 5% CO2 with humidity.
Culture supernatants were collected when the medium was changed at 4, 7, and 11 days post infection. As above, the replication of each virus was monitored by detecting reverse transcriptase (RT) activity in the supernatants using the Lenti-RT activity kit. (Cavidi Tech). The amount of RT was determined with the aid of a regression line of standards. The results are presented as absorbance values (OD) and higher absorbance indicates a higher protein concentration and greater viral infection.
In Experiment 4, (Table 5) approximately 200,000 H9 cells were infected with HIV-1 at 25 TCID50 to test the inhibitory effect of different concentrations of peptides GPG-NH2, GKG-NH2 and CQG-NH2 and combinations of these peptides (the indicated concentration corresponds to the total concentration of tripeptide).

[4] = Experiment 3, 5 μM (of each tripeptide)
[5] = Experiment 3, 20 μM (of each tripeptide)
[6] = Experiment 4, 5 μM (total concentration of tripeptide)
[7] = Experiment 4, 15 μM (total concentration of tripeptide)

Row | Compound | Day 7 RT SIV ([1]; Experiment 1, 100 μM) [OD] | Day 10 RT SIV ([1]; Experiment 1, 100 μM) [OD] | Day 7 RT SIV ([1]; Experiment 2, 100 μM) [OD] | Day 10 RT SIV ([1]; Experiment 2, 100 μM) [OD] | Day 7 RT SIV [1, 4] [OD] | Day 10 RT SIV [1, 4] [OD] | Day 7 RT SIV [1, 5] [OD] | Day 10 RT SIV [1, 5] [OD] | SIV infection, result in words [1] | Day 7 RT HIV-2 ([2]; Experiment 1, 100 μM) [OD] | Day 10 RT HIV-2 ([2]; Experiment 1, 100 μM) [OD] | Day 7 RT HIV-2 ([2]; Experiment 2, 100 μM) [OD] | Day 10 RT HIV-2 ([2]; Experiment 2, 100 μM) [OD] | Day 7 RT HIV-2 [2, 4] [OD] | Day 10 RT HIV-2 [2, 4] [OD] | Day 7 RT HIV-2 [2, 5] [OD] | Day 10 RT HIV-2 [2, 5] [OD] | HIV-2 infection, result in words [2] | Day 7 RT HIV-1 ([3]; Experiment 1, 100 μM) [OD] | Day 10 RT HIV-1 ([3]; Experiment 1, 100 μM) [OD] | other results
1 | NCCCC[C@H](NC(=O)CN)C(=O)NCC(N)=O [GKG-NH2, glycyl-lysyl-glycine amide] (H-Gly-Lys-Gly-NH2) | 0.421 | 0.099 | 0.116 | 0.204 | 0.271 | 1.709 | 1.531 | 2.482 | inhibit or prevent HIV-2 and SIV infection | 0.160 | 0.147 | 0.283 | 1.637 | 1.769 | 2.510 | 1.759 | 2.646 | inhibit or prevent HIV-2 and SIV infection | 0.080 | 0.074 | Day 7 RT SIV ([1]; Experiment 3, 100 μM): 1.005 OD; Day 10 RT SIV ([1]; Experiment 3, 100 μM): 1.382 OD; Day 7 RT HIV-2 ([2]; Experiment 3, 100 μM): 0.828 OD; Day 10 RT HIV-2 ([2]; Experiment 3, 100 μM): 1.947 OD; Day 7 RT HIV-1 ([3]; Experiment 2, 100 μM): 0.145 OD; Day 10 RT HIV-1 ([3]; Experiment 2, 100 μM): 0.345 OD; Day 7 RT HIV-1 [3, 4]: 1.587 OD; Day 10 RT HIV-1 [3, 4]: 1.683 OD; Day 7 RT HIV-1 [3, 5]: 1.616 OD; Day 10 RT HIV-1 [3, 5]: 2.036 OD; Day 7 RT HIV-1 ([3]; Experiment 3, 100 μM): 0.823 OD; Day 10 RT HIV-1 ([3]; Experiment 3, 100 μM): 1.520 OD; Day 7 RT HIV-1 [3, 6]: 3.303 OD; Day 10 RT HIV-1 (1:5) [3, 6]: 1.287 OD; Day 7 RT HIV-1 [3, 7]: 3.551 OD; Day 10 RT HIV-1 (1:5) [3, 7]: 1.530 OD; Day 7 RT HIV-1 ([3]; Experiment 4, 45 μM): 3.126 OD; Day 10 RT HIV-1 (1:5) ([3]; Experiment 4, 45 μM): 0.410 OD; HIV-1 infection, result in words [3]: inhibited and/or prevented HIV-1 infection
2 | NCC(=O)N1CCC[C@H]1C(=O)NCC(N)=O [GPG-NH2, glycyl-prolyl-glycine amide] (H-Gly-Pro-Gly-NH2) | 0.138 | 0.103 | 0.067 | 0.139 | 0.753 | 2.201 | 0.197 | 0.779 | inhibit or prevent HIV-2 and SIV infection | 0.735 | 0.145 | 0.093 | 0.575 | 1.735 | 2.329 | 0.252 | 1.305 | inhibit or prevent HIV-2 and SIV infection | 0.068 | 0.074 | Day 7 RT HIV-1 ([3]; Experiment 2, 100 μM): 0.090 OD; Day 10 RT HIV-1 ([3]; Experiment 2, 100 μM): 0.143 OD; Day 7 RT HIV-1 [3, 4]: 1.527 OD; Day 10 RT HIV-1 [3, 4]: 2.398 OD; Day 7 RT HIV-1 [3, 5]: 0.239 OD; Day 10 RT HIV-1 [3, 5]: 0.692 OD; Day 7 RT HIV-1 [3, 6]: 2.970 OD; Day 10 RT HIV-1 (1:5) [3, 6]: 1.107 OD; Day 7 RT HIV-1 [3, 7]: 0.894 OD; Day 10 RT HIV-1 (1:5) [3, 7]: 0.095 OD; Day 7 RT HIV-1 ([3]; Experiment 4, 45 μM): 0.177 OD; Day 10 RT HIV-1 (1:5) ([3]; Experiment 4, 45 μM): 0.034 OD; Day 7 RT HIV-1 ([3]; Experiment 4, 100 μM): 0.150 OD; Day 10 RT HIV-1 (1:5) ([3]; Experiment 4, 100 μM): 0.033 OD; HIV-1 infection, result in words [3]: inhibited and/or prevented HIV-1 infection
3 | cystyl-glutaminyl-glycine amide [CQG-NH2] | 0.747 | 0.110 | 0.120 | 1.761 | 1.159 | 2.821 | 0.615 | 2.158 | inhibit or prevent HIV-2 and SIV infection | 0.217 | 0.296 | 1.241 | 2.501 | 1.760 | 2.466 | 1.748 | 2.721 | inhibit or prevent HIV-2 and SIV infection | 0.091 | 0.108 | Day 7 RT SIV ([1]; Experiment 3, 100 μM): 0.795 OD; Day 10 RT SIV ([1]; Experiment 3, 100 μM): 2.286 OD; Day 7 RT HIV-2 ([2]; Experiment 3, 100 μM): 1.715 OD; Day 10 RT HIV-2 ([2]; Experiment 3, 100 μM): 2.815 OD; Day 7 RT HIV-1 ([3]; Experiment 2, 100 μM): 0.143 OD; Day 10 RT HIV-1 ([3]; Experiment 2, 100 μM): 1.546 OD; Day 7 RT HIV-1 [3, 4]: 1.547 OD; Day 10 RT HIV-1 [3, 4]: 2.028 OD; Day 7 RT HIV-1 [3, 5]: 1.578 OD; Day 10 RT HIV-1 [3, 5]: 1.484 OD; Day 7 RT HIV-1 ([3]; Experiment 3, 100 μM): 1.520 OD; Day 10 RT HIV-1 ([3]; Experiment 3, 100 μM): 2.014 OD; Day 7 RT HIV-1 [3, 6]: 2.991 OD; Day 10 RT HIV-1 (1:5) [3, 6]: 1.459 OD; Day 7 RT HIV-1 [3, 7]: 2.726 OD; Day 10 RT HIV-1 (1:5) [3, 7]: 1.413 OD; Day 7 RT HIV-1 ([3]; Experiment 4, 45 μM): 3.124 OD; Day 10 RT HIV-1 (1:5) ([3]; Experiment 4, 45 μM): 1.364 OD; HIV-1 infection, result in words [3]: inhibited and/or prevented HIV-1 infection
